Source: patent publication US10918645B2 (LIFEARC, priority 2016, dated 2021)

Experiments:
LRRK2 G2019S = LRRK2 G2019S (Homo sapiens (Human), UniProt Q5S007, G2019S); experiment: Adapta Kinase Assay (LRRK2_IC50 assay); assay type: biochemical; settings: inhibition of LRRK2 G2019S
Experimental: In Adapta™ Kinase Assay (LRRK2_IC50 assay): the Kinase Reaction Buffer contained 5× Kinase Buffer S (Life Technologies, PV5213) and 2 mM DTT (Life Technologies, P2325).
The Adapta® universal kinase assay is a homogenous, fluorescent based immunoassay for the detection of ADP. In contrast to ATP depletion assays, the Adapta® assay is extremely sensitive to ADP formation such that a majority of the signal change occurs in the first 10-20% conversion of ATP to ADP. This makes the Adapta® universal kinase assay ideally suited for use with low activity kinases.
Prepare a 1× solution of kinase reaction buffer from the 5× Kinase Buffer S stock (listed above) by adding 2 ml of 5× stock to 8 ml of H2O to make 10 ml of 1× kinase reaction buffer. To this, add 20 μl of 1 M DTT.
Kinase reactions are performed in a 10 μl volume in low-volume 384-well plates. […] Other non—treated assay plates, while not tested, may also be suitable. The concentration of substrate in the assay is 100 μM, and the 1× kinase reaction buffer consists of 50 mM Tris-HCl pH8.5, 10 mM MgCl2, 1 mM EGTA, 0.01% Brij-35, and 2 mM DTT, plus any additional additives that may be required for a specific kinase. […] The plate is allowed to equilibrate at room temperature for at least 30 minutes before being read on a plate reader configured for Adapta™ TR-FRET.
The data presented in this document were generated using a BMG LABTECH PHERAstar plate reader using the appropriate filters and instrument settings for Adapta™. The Test Compounds are screened in 1% DMSO (final) in the well. For 8 point titrations, 5-fold serial dilutions are conducted from the starting concentration.
(§1) IC50 estimates were obtained using the software XLfit (IDBS Inc.).

JAK2 = JAK2 (Homo sapiens (Human), UniProt O60674); experiment: LANCE Kinase Assay (JAK2_IC50 selectivity assay); assay type: biochemical
JAK2, sequence (O60674 whole entry): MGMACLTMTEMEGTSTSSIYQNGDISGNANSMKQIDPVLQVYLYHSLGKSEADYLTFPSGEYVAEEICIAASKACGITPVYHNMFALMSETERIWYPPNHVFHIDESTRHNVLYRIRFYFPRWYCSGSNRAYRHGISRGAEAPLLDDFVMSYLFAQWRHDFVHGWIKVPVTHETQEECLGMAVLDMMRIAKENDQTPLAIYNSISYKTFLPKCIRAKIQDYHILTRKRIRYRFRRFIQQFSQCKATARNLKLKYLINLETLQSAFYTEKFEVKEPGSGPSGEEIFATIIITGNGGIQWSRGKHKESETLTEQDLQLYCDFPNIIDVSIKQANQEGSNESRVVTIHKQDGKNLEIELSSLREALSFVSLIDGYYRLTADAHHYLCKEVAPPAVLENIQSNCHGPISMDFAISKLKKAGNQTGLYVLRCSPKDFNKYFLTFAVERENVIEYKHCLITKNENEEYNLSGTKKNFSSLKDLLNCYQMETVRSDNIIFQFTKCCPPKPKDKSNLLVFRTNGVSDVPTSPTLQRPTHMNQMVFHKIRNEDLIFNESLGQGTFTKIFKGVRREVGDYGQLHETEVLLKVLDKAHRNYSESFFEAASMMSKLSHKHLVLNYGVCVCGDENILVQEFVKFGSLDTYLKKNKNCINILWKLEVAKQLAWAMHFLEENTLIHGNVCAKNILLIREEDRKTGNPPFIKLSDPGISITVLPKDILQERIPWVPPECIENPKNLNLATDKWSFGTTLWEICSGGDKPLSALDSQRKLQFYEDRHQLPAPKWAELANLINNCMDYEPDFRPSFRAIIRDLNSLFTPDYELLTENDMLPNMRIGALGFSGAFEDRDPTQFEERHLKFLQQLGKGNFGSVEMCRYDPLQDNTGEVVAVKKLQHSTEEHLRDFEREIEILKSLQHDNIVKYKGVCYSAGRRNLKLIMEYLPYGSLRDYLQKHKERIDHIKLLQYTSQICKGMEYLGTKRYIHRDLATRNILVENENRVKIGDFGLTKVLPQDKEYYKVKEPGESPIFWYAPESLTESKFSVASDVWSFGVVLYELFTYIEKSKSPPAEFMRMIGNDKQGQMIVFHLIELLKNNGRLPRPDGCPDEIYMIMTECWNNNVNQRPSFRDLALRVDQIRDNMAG
Source text: In LANCE® Kinase Assay (JAK2_IC50 selectivity assay): JAK2 (Invitrogen, Cat. No PV4288), ATP (Sigma, Cat. No. A7699-1G), DMSO (Sigma, Cat. No. D2650), DTT (Sigma, Cat. No. 43815), LANCE Ultra ULight™-JAK-1 peptide (Perkin Elmer, Cat. No. TRF0121), LANCE Eu-W1024 Anti-phosphotyrosine (PT66) (Perkin Elmer, Cat. No. AD0069), LANCE™ Detection Buffer (Perkin Elmer, Cat. No. CR97-100), Tofacitinib (PharmaBlock Sciences(Nanjing), Inc, Cat. No. PBN2011586-01); Equipments: Envision (Perkin Elmer), Bravo (Agilent); Consumables: 384 well Intermediate plate (Greiner, Cat. No. 781280), 384 well assay plate (Perkin Elmer, Cat. No. 6007299),
The assay involves two steps, the enzymatic step and the detection step with HTRF reagents. Step 1: During the enzymatic step the substrate-biotin is incubated with the kinase of interest. ATP is added to start the reaction. Step 2: The detection reagent catches the phosphorylated substrate and the resulting TR-FRET is proportional to the phosphorylation level.
Compound Preparation: Dissolve the test compounds into 30 mM DMSO solution and put them in nitrogen hood at room temperature for long term storage; Dilute the 30 mM compound in DMSO with 3-fold factor, total 11 concentrations; Aspirate 1 μl compound and then dilute them in 25 folds with kinase buffer. Mix well and balance 30 minutes at room temperature.
Kinase Reaction: Transfer 2.5 μl compounds in kinase buffer (4×) into assay plate by Agilent Bravo. Spin the plate; Transfer 5 μl enzyme mixture into the assay plate by using Eppendorf electronic multi-channel pipette. Spin the plate; Incubate the assay plate for 20 minutes at room temperature (23° C.); Add 2.5 μl kinase buffer with ATP into the assay plate by using Multidrop. Spin and seal the plate; Incubate the assay plate for 90 minutes at room temperature (23° C.).
Stop Reaction: Transfer 10 μl detection reagent (2 nM LANCE Eu-W1024 Anti-phosphotyrosine) into the assay plate by using Eppendorf electronic multi-channel pipette. Spin and seal the plate; Incubate the assay plate at room temperature (23° C.) for 60 minutes.
Detection and Read: The excitation wavelength is 340 nm, the primary emission wavelength is 615 nm and the secondary emission wavelength is 665 nm (for Cryptate and Ulight, respectively). Read the plate with EnVision to get the readout of both wavelengths; Calculate the ratio of 665 nm/615 nm.
as §1

LRRK2 G2019S, sequence (Q5S007 970-2527 G2019S): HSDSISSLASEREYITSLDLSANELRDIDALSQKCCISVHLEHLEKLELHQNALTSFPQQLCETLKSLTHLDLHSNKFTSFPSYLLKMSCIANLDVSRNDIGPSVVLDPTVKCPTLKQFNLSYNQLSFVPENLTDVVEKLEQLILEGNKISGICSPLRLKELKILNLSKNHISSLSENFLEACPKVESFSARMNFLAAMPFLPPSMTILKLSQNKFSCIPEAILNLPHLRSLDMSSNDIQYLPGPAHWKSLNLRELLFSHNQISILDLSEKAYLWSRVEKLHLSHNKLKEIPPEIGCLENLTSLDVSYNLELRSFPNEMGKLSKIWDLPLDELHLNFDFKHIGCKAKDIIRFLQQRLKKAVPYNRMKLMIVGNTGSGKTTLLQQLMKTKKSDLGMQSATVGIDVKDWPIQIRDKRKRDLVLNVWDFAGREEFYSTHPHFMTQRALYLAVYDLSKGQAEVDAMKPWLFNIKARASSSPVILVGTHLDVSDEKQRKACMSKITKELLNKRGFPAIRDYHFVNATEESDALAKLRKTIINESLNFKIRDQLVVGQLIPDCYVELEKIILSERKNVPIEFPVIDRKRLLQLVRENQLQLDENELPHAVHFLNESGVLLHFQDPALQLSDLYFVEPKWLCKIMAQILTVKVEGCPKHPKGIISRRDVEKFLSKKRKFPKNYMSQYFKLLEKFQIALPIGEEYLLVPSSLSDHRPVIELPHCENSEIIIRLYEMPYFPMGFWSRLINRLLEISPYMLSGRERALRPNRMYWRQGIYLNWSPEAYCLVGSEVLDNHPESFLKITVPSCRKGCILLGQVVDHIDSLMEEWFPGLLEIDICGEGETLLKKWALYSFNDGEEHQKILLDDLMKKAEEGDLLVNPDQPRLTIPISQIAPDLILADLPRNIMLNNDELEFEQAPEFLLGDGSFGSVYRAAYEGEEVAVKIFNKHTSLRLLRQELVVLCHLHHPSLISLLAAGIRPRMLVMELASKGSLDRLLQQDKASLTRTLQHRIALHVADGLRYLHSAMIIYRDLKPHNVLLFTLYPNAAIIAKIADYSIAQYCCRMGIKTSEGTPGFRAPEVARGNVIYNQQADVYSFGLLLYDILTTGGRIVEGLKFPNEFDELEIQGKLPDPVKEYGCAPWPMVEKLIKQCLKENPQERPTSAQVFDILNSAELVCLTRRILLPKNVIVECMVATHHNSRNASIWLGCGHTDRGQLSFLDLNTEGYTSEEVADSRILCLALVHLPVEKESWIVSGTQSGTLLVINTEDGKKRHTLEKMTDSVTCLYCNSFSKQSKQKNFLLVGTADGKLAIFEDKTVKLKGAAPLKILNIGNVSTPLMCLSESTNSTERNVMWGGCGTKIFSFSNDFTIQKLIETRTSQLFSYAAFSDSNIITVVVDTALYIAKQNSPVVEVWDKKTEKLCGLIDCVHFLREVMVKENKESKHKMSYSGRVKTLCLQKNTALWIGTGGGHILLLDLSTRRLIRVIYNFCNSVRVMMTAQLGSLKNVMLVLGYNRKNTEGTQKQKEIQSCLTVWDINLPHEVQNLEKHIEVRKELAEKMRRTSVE

Row | Compound | IC50 (LRRK2 G2019S) [nM] | IC50 (JAK2) [nM]
1 | 2-(5,11-dihydro-4H-3,4,10,11-tetraazadibenzo[cd,h]azulen-4-yl)ethan-1-ol [Example 57] | 260 | –
2 | 4-(sec-butyl)-5,11-dihydro-4H-3,4,10,11-tetraazadibenzo[cd,h]azulene [Example 50] | 120 | –
3 | 4-(tetrahydro-2H-pyran-4-yl)-8-(trifluoromethyl)-5,11-dihydro-4H-3,4,7,10,11-pentaazadibenzo[cd,h]azulene [Example 89] | 49 | 23000
4 | 4-cyclobutyl-5,11-dihydro-4H-3,4,10,11-tetraazadibenzo[cd,h]azulene [Example 51] | 39 | 580
5 | 4-cyclopropyl-4,11-dihydro-5H-3,4,10,11-tetraazadibenzo[cd,h]azulen-5-one [Example 33] | 30 | –
6 | 4-cyclopropyl-5,11-dihydro-4H-3,4,10,11-tetraazadibenzo[cd,h]azulene [Example 47] | 54 | 2200
7 | 4-ethyl-4,11-dihydro-5H-3,4,10,11-tetraazadibenzo[cd,h]azulen-5-one [Example 32] | 34 | –
8 | 4-ethyl-5,11-dihydro-4H-3,4,10,11-tetraazadibenzo[cd,h]azulene [Example 46] | 49 | 1900
9 | 4-isobutyl-5,11-dihydro-4H-3,4,10,11-tetraazadibenzo[cd,h]azulene [Example 49] | 67 | –
10 | 4-isopropyl-4,11-dihydro-5H-3,4,10,11-tetraazadibenzo[cd,h]azulen-5-one [Example 34] | 41 | –
11 | 4-isopropyl-4,11-dihydro-5H-3,4,10,11-tetraazadibenzo[cd,h]azulen-5-one [Example 35] | 75 | –
12 | 4-isopropyl-5,11-dihydro-4H-3,4,10,11-tetraazadibenzo[cd,h]azulene [Example 48] | 68 | 550
13 | CN1CCCc2n[nH]c3ccnc1c23 [Example 16, 6-methyl-6,7,8,9-tetrahydro-2H-1,2,5,6-tetraazabenzo[cd]azulene] | 3000 | –
14 | CC(C)N1CCCc2n[nH]c3ccnc1c23 [Example 19, 6-isopropyl-6,7,8,9-tetrahydro-2H-1,2,5,6-tetraazabenzo[cd]azulene] | 230 | 3100
15 | OCCN1CCCc2n[nH]c3ccnc1c23 [Example 28, 2-(2,7,8,9-tetrahydro-6H-1,2,5,6-tetraazabenzo[cd]azulen-6-yl)ethan-1-ol] | 570 | –
16 | CC(C)N1CCC(N2C(=O)c3ccccc3-c3n[nH]c4ccnc2c34)CC1 [Example 42] | 31 | –
17 | c1ccc2c(c1)CN(C1CCCC1)c1nccc3[nH]nc-2c13 [Example 52] | 33 | –
18 | c1ccc(N2Cc3ccccc3-c3n[nH]c4ccnc2c34)cc1 [Example 53] | 33 | –
19 | CC(C)N1CCC(N2Cc3ccccc3-c3n[nH]c4ccnc2c34)CC1 [Example 56] | 58 | 4800

Results, then the compound that gave them:

Row | IC50 (LRRK2 G2019S) [nM] | IC50 (JAK2) [nM] | Compound
20 | 20 | – | 4-cyclobutyl-4,11-dihydro-5H-3,4,10,11-tetraazadibenzo[cd,h]azulen-5-one [Example 37]
21 | 450 | – | CC(C)CN1CCCc2n[nH]c3ccnc1c23 [Example 20, 6-isobutyl-6,7,8,9-tetrahydro-2H-1,2,5,6-tetraazabenzo[cd]azulene]
22 | 91 | – | CN1CCC(N2CCCc3n[nH]c4ccnc2c34)CC1 [Example 26, 6-(1-methylpiperidin-4-yl)-6,7,8,9-tetrahydro-2H-1,2,5,6-tetraazabenzo[cd]azulene]
23 | 250 | – | CC1Cc2n[nH]c3ccnc(c23)N(C2CCOCC2)C1 (stereo not drawn) [Example 30, 8-methyl-6-(tetrahydro-2H-pyran-4-yl)-6,7,8,9-tetrahydro-2H-1,2,5,6-tetraazabenzo[cd]azulene]
24 | 71 | 2100 | CN1Cc2ccccc2-c2n[nH]c3ccnc1c23 [Example 45, 4-methyl-5,11-dihydro-4H-3,4,10,11-tetraazadibenzo[cd,h]azulene]
25 | 4 | – | O=C1c2n[nH]cc2-c2n[nH]c3ccnc(c23)N1C1CCOCC1 [Example 65, 9-(tetrahydro-2H-pyran-4-yl)-5,9-dihydro-1,2,4,5,8,9-hexaazabenzo[cd]cyclopenta[h]azulen-10(2H)-one]
26 | 26 | – | Cn1cc2c(n1)C(=O)N(C1CCOCC1)c1nccc3[nH]nc-2c13 [Example 66, 2-methyl-9-(tetrahydro-2H-pyran-4-yl)-5,9-dihydro-1,2,4,5,8,9-hexaazabenzo[cd]cyclopenta[h]azulen-10(2H)-one]
27 | 7 | – | Cn1ncc2c1C(=O)N(C1CCOCC1)c1nccc3[nH]nc-2c13 [Example 67, 1-methyl-9-(tetrahydro-2H-pyran-4-yl)-5,9-dihydro-1,2,4,5,8,9-hexaazabenzo[cd]cyclopenta[h]azulen-10(1H)-one]
28 | 23 | – | Cn1cc2c(n1)CN(C1CCOCC1)c1nccc3[nH]nc-2c13 [Example 70, 2-methyl-9-(tetrahydro-2H-pyran-4-yl)-2,5,9,10-tetrahydro-1,2,4,5,8,9-hexaazabenzo[cd]cyclopenta[h]azulene]
29 | 15 | 660 | CCn1cc2c(n1)CN(C1CCOCC1)c1nccc3[nH]nc-2c13 [Example 72, 2-ethyl-9-(tetrahydro-2H-pyran-4-yl)-2,5,9,10-tetrahydro-1,2,4,5,8,9-hexaazabenzo[cd]cyclopenta[h]azulene]
30 | 50 | 2400 | CC(C)n1cc2c(n1)CN(C1CCOCC1)c1nccc3[nH]nc-2c13 [Example 74, 2-isopropyl-9-(tetrahydro-2H-pyran-4-yl)-2,5,9,10-tetrahydro-1,2,4,5,8,9-hexaazabenzo[cd]cyclopenta[h]azulene]
31 | 40 | 4600 | CC(C)n1cc2c(n1)CN(C1CCN(C)CC1)c1nccc3[nH]nc-2c13 [Example 81, 2-isopropyl-9-(1-methylpiperidin-4-yl)-2,5,9,10-tetrahydro-1,2,4,5,8,9-hexaazabenzo[cd]cyclopenta[h]azulene]
32 | 39 | – | CC(C)N1CCC(N2Cc3nn(C)cc3-c3n[nH]c4ccnc2c34)CC1 [Example 82, 9-(1-isopropylpiperidin-4-yl)-2-methyl-2,5,9,10-tetrahydro-1,2,4,5,8,9-hexaazabenzo[cd]cyclopenta[h]azulene]
33 | 29 | 3000 | CCn1cc2c(n1)CN(C1CCN(C(C)C)CC1)c1nccc3[nH]nc-2c13 [Example 86, 2-ethyl-9-(1-isopropylpiperidin-4-yl)-2,5,9,10-tetrahydro-1,2,4,5,8,9-hexaazabenzo[cd]cyclopenta[h]azulene]
34 | 31 | 5400 | CC(C)N1CCC(N2Cc3nn(C(C)C)cc3-c3n[nH]c4ccnc2c34)CC1 [Example 88, 2-isopropyl-9-(1-isopropylpiperidin-4-yl)-2,5,9,10-tetrahydro-1,2,4,5,8,9-hexaazabenzo[cd]cyclopenta[h]azulene]
35 | 820 | – | CCN1CCN(C2CCOCC2)c2nccc3[nH]nc1c23 [Example 94, 9-ethyl-6-(tetrahydro-2H-pyran-4-yl)-6,7,8,9-tetrahydro-2H-1,2,5,6,9-pentaazabenzo[cd]azulene]
